Results published in patent US9434763B2, “Derivatives of pyridinone as inhibitors for tissue transglutaminase” (ZEDIRA GMBH, priority 2012, dated 2016).

Target: T1, His tagged recombinant human tissue transglutaminase (His6-rh-TG2) (Homo sapiens, UniProt P21980)
T1 construct: purchased Zedira T002
T1 sequence (P21980 1-687): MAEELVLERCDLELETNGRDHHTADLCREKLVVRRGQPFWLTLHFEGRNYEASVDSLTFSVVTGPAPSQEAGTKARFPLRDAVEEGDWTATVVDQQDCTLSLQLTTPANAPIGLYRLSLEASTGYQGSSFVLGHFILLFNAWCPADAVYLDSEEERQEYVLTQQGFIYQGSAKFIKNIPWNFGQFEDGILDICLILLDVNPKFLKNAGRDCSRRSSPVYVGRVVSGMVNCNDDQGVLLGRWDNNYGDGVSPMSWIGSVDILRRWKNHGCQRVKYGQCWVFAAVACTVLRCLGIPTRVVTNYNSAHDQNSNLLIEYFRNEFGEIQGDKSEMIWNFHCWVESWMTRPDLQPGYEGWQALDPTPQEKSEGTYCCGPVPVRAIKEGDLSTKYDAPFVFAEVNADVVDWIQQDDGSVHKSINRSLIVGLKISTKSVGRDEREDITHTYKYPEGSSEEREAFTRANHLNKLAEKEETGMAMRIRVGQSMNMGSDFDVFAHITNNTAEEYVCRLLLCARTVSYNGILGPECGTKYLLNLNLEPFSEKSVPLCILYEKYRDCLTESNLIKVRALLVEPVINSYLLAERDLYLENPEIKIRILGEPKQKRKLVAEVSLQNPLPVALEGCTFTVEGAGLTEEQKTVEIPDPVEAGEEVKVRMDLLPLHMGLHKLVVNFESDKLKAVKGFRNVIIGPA
Assay: Inactivation of human tissue transglutaminase, fluorescence assay with Abz-APE(CAD-DNP)QEA-OH
Assay type: biochemical
Conditions: substrate Abz-APE(CAD-DNP)QEA-OH, 37° C., pH=7.5
Protocol: General Method for Inactivation of Human Tissue Transglutaminase
250 μg lyophilized His tagged recombinant human tissue transglutaminase (His6-rh-TG2, Zedira product T002) are reconstituted by adding 150 μl water (resulting buffer 50 mM NaH2PO4, 150 mM NaCl, pH=8.0).
A 10 mM inhibitor stock solution in DMSO is prepared and is diluted with buffer (50 mM Tris-HCl, 10 mM CaCl2, 5 mM DTT, pH=7.5) each to the twentyfold of the concentration desired in the preparation (but at least 1/50 dilution resulting in a 2% DMSO concentration).
900 μl of an assay-solution consisting of 55.56 mM Tris, 11.11 mM CaCl2, 0.11% PEG8000, 5.56 mM DTT, 5.56 mM glycine methyl ester and 50 μM Abz-APE(CAD-DNP)QEA-OH, (Zedira product A102; patent No.: EP 1781807B1), pH=7.5 are added to a cuvette and heated in a measuring cell of a spectrophotometer to 37° C. 50 μl of the particular inhibitor solution are added to this solution (resulting in a concentration of less than 0.2% DMSO in the mixture).
7 μl of the transglutaminase solution reconstituted above are diluted with 51 μl buffer (50 mM Tris, 100 mM NaCl, 5 mM DTT, pH=7.5). 50 μl of this enzyme solution (10 μg His6-rhTG2) are added to the assay-solution containing the particular inhibitor concentration. It is incubated 5 min at 37° C. before measuring starts (λexc=313 nm and λem=418 nm, t=15 to 30 min).
The evaluation of the resulting enzyme activity is done using the slope of the straight line obtained by the increase in fluorescence.
To determine the non-inhibited enzyme activity, DMSO instead of inhibitor stock solution is used. IC50 values are determined by plotting the resulting enzyme activity against the logarithm of the inhibitor concentration. IC50 is defined as the concentration of inhibitor resulting in 50% of enzyme activity.

| SMILES | IC50 [nM] |
| --- | --- |
| CCOC(=O)/C=C/CC[C@H](NC(C)=O)C(=O)Nc1cccn(CC(=O)N[C@@H](CC(C)(C)C)C(=O)OC)c1=O [A40, (S,E)-Ethyl 6-acetamido-7-(1-(2-((S)-1-methoxy-4,4-dimethyl-1-oxopentan-2-ylamino)-2-oxoethyl)-2-oxo-1,2-dihydropyridin-3-ylamino)-7-oxohept-2-enoate] | 131 |
| CCOC(=O)/C=C/CC[C@H](NC(=O)c1ccccc1)C(=O)Nc1cccn(CC(=O)NCCC(C)C)c1=O [A10, (S,E)-Ethyl 6-benzamido-7-(1-(2-(isopentylamino)-2-oxoethyl)-2-oxo-1,2-dihydropyridin-3-ylamino)-7-oxohept-2-enoate] | 73 |
| CCC(CC)CNC(=O)Cn1cccc(NC(=O)[C@H](CC/C=C/C(=O)OC)NC(=O)C(C)N)c1=O (stereo partly drawn) [A68, (6S,E)-Methyl 6-(2-aminopropanamido)-7-(1-(2-(2-ethylbutylamino)-2-oxoethyl)-2-oxo-1,2-dihydropyridin-3-ylamino)-7-oxohept-2-enoate 2,2,2-trifluoroacetate] | 53 |
| CCOC(=O)/C=C/CC[C@H](NC(=O)c1ccc(S(N)(=O)=O)cc1)C(=O)Nc1cccn(CC(=O)NCCC(C)C)c1=O [A14, (S,E)-Ethyl 7-(1-(2-(isopentylamino)-2-oxoethyl)-2-oxo-1,2-dihydropyridin-3-ylamino)-7-oxo-6-(4-sulfamoylbenzamido)hept-2-enoate] | 137 |
| CCOC(=O)/C=C/CC[C@H](NC(=O)CCC(=O)O)C(=O)Nc1cccn(CC(=O)N[C@H](C(=O)OC)[C@H](C)CC)c1=O [A36, 4-((S,E)-7-Ethoxy-1-(1-(2-((2S,3R)-1-methoxy-3-methyl-1-oxopentan-2-ylamino)-2-oxoethyl)-2-oxo-1,2-dihydropyridin-3-ylamino)-1,7-dioxohept-5-en-2-ylamino)-4-oxobutanoic acid] | 88 |
| CCOC(=O)/C=C/CC[C@H](NS(=O)(=O)Cc1ccc(Cl)cc1)C(=O)Nc1cccn(CC(=O)NCCC(C)C)c1=O [A9, (S,E)-ethyl 6-((4-chlorophenyl)methylsulfonamido)-7-(1-(2-(isopentylamino)-2-oxoethyl)-2-oxo-1,2-dihydropyridin-3-ylamino)-7-oxohept-2-enoate] | 708 |
| CCOC(=O)/C=C/CC[C@H](NS(=O)(=O)c1ccc(O)c(C(=O)O)c1)C(=O)Nc1cccn(CC(=O)NCCC(C)C)c1=O [A23, (S,E)-5-(N-(7-Ethoxy-1-(1-(2-(isopentylamino)-2-oxoethyl)-2-oxo-1,2-dihydropyridin-3-ylamino)-1,7-dioxohept-5-en-2-yl)sulfamoyl)-2-hydroxybenzoic acid] | 475 |
| CCOC(=O)/C=C/CC[C@H](NC(=O)c1ccc2c(c1)OCCN2C)C(=O)Nc1cccn(CC(=O)NCCC(C)C)c1=O [A21, (S,E)-Ethyl 7-(1-(2-(isopentylamino)-2-oxoethyl)-2-oxo-1,2-dihydropyridin-3-ylamino)-6-(4-methyl-3,4-dihydro-2H-benzo[b][1,4]oxazine-7-carboxamido)-7-oxohept-2-enoate] | 111 |
| CCOC(=O)/C=C/CC[C@H](NC(=O)CCC(=O)O)C(=O)Nc1cccn(CC(=O)NCCN2CCNC2=O)c1=O [A49, (S,E)-4-(7-Ethoxy-1,7-dioxo-1-(2-oxo-1-(2-oxo-2-(2-(2-oxoimidazolidin-1-yl)ethylamino)ethyl)-1,2-dihydropyridin-3-ylamino)hept-5-en-2-ylamino)-4-oxobutanoic acid] | 1800 |
| CCOC(=O)/C=C/CC[C@H](NC(=O)OCc1ccccc1)C(=O)Nc1ccc(C)n(CC(=O)NCCC(C)C)c1=O [A2, (S,E)-Ethyl 6-(benzyloxycarbonylamino)-7-(1-(2-(isopentylamino)-2-oxoethyl)-6-methyl-2-oxo-1,2-dihydropyridin-3-ylamino)-7-oxohept-2-enoate] | 100 |
| CCOC(=O)/C=C/CC[C@H](NC(C)=O)C(=O)Nc1cccn(CC(=O)N2CCCC(C)C2)c1=O (stereo partly drawn) [A52, (6S,E)-Ethyl 6-acetamido-7-(1-(2-(3-methylpiperidin-1-yl)-2-oxoethyl)-2-oxo-1,2-dihydropyridin-3-ylamino)-7-oxohept-2-enoate] | 700 |
